From patent US4058659A, “6,8-Disubstituted purine derivatives of 9-β-D-ribofuranosyl 3',5'-cyclic phosphate” (ICN Pharmaceuticals, Inc., priority 1975, dated 1977)
Structures can show the parent of a compound that is named as a salt.

Tests used:
[1] = test system: intact anesthetized dog (myocardial contractility); assay: In vivo positive inotropic effect (dP/dT max) in the intact anesthetized dog; conditions: i.v. infusion 1 mg/kg per min
Experimental: (§1) The measurement dP/dT max was used as the index of change in myocardial contractility (inotropism). Compound 12 was given as an intravenous infusion at the rate of 1 mg/kg per min. in total single doses of 1.0 to 10.0 mg/kg and the values are expresses as percent of control.
In Vivo Positive Inotropic Effect
Measurement of myocardial contractility (inotropism)
using dP/dT max (% of control) as index of measurement of inotropic

[2] = test system: isolated cat papillary muscle; assay: Positive inotropic effect: % change in contractile force in isolated cat papillary muscle
unanesthetized dogs = assay: Inotropic effect in unanesthetized dogs; assay type: in vivo, dog; conditions: compared with anesthetized dogs
Experimental: as §1

[3] = test system: renal and mesenteric blood flow; assay: Renal and mesenteric blood flow in anesthetized dogs; assay type: in vivo, dog
[4] = Antihypertensive properties in in vivo animal testing
[5] = Anti-inflammatory activity in in vivo animal testing

8-(Benzylthio)-6-(diethylamino)-9-β-D-ribofuranosylpurine 3',5'-CyclicPhosphate [Compound 12]
dP/dT max (% of control) ([1]; 1.0 mg/kg, 1 minute after infusion): 120%
dP/dT max (% of control) ([1]; 1.0 mg/kg, 3 minutes after infusion): 120%
dP/dT max (% of control) ([1]; 1.0 mg/kg, 5 minutes after infusion): 130%
dP/dT max (% of control) ([1]; 1.0 mg/kg, 15 minutes after infusion): 110%
dP/dT max (% of control) ([1]; 3.1 mg/kg, 1 minute after infusion): 200%
dP/dT max (% of control) ([1]; 3.1 mg/kg, 3 minutes after infusion): 180%
dP/dT max (% of control) ([1]; 3.1 mg/kg, 5 minutes after infusion): 160%
dP/dT max (% of control) ([1]; 3.1 mg/kg, 15 minutes after infusion): 140%
dP/dT max (% of control) ([1]; 3.1 mg/kg, 30 minutes after infusion): 105%
dP/dT max (% of control) ([1]; 10.0 mg/kg, 1 minute after infusion): 210%
dP/dT max (% of control) ([1]; 10.0 mg/kg, 3 minutes after infusion): 200%
dP/dT max (% of control) ([1]; 10.0 mg/kg, 5 minutes after infusion): 180%
dP/dT max (% of control) ([1]; 10.0 mg/kg, 15 minutes after infusion): 140%
dP/dT max (% of control) ([1]; 10.0 mg/kg, 30 minutes after infusion): 100%
% change in Contractile Force (CF) ([2]; 1.0 μg/ml): 3.8%
% change in Contractile Force (CF) ([2]; 3.1 μg/ml): 8.0%
% change in Contractile Force (CF) ([2]; 10.0 μg/ml): 12.7%
% change in Contractile Force (CF) ([2]; 31.0 μg/ml): 27.0%
% change in Contractile Force (CF) ([2]; 100 μg/ml): 46.0%
% change in Contractile Force (CF) ([2]; 310 μg/ml): 56.0%
positive inotropic effect ([2]; statement in words, isolated cat papillary muscle): exhibit positive inotropic effect
inotropic effect in unanesthetized dogs (unanesthetized dogs): same inotropic effect
mesenteric blood flow [3]: increase in renal and mesenteric blood flow
renal blood flow [3]: increase in renal and mesenteric blood flow

CC(=O)O[C@@H]1[C@@H]2OP(=O)(O)OC[C@H]2O[C@H]1n1c(Sc2ccc(Cl)cc2)nc2c(Cl)ncnc21 [Compound 33, 2'-O-Acetyl-6-chloro-8-(p-chlorophenylthio)-9-β-D-ribofuranosylpurine 3',5'-Cyclic Phosphate Sodium Salt]
antihypertensive properties [4]: displayed antihypertensive properties
anti-inflammatory activity [5]: displayed anti-inflammatory activity
